Patent US20240245633A1, “ROR Gamma Agonists as Enhancers of Protective Immunity” (University of Florida Research Foundation, Incorporated, priority 2015, published 2024)
Marks after values point to notes of the source that are not given here.

What was measured:
[1] = molecular target: ligand binding domain (LBD) of RORγt (Homo sapiens, UniProt P51449); conditions: read-out: IC50, competitive radioligand binding; cited from earlier work
Gal4-RORγ = molecular target: T1, Gal4-RORγ (Homo sapiens, UniProt P51449); assay: cell-based; conditions: HEK-293T, read-out: fold induction of reporter gene expression
T1 sequence (P51449 269-508 limits assumed): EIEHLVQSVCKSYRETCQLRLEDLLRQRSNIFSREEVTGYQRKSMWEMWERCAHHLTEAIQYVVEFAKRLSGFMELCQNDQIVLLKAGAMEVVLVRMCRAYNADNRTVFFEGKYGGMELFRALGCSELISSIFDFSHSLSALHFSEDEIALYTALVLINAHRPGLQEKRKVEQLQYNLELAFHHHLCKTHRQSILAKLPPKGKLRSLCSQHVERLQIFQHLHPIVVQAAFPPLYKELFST

[2] = molecular target: T2, RORγ LBD / SRC1-3 NR box peptide (Homo sapiens, UniProt P51449); assay: NR box peptide interaction assay (TR-FRET); format: biochemical; conditions: concentration response
T2 sequence (P51449 269-508 limits assumed): T1 sequence (P51449 269-508 limits assumed)
Method: NR box peptide interaction assay. A TR-FRET-based interaction assay was used. […] The mixtures were incubated for 2 hr at R.T., and fluorescence intensity was measured on an Envision pate reader with excitation at 340 nm and emission at 490 nm and 520 nm. The ratio of intensity at 520 nm/490 nm was used to calculate cofactor recruitment activity.

[3] = tested on: ROR target genes FGF21 and G6Pase; conditions: in cells and in vivo; cited from earlier work
[4] = molecular target: T3, RORγt LBD pretreated with ursolic acid (Homo sapiens, UniProt P51449); assay: Differential HDX-MS of RORγt pretreated with ursolic acid ± compound; format: binding
T3 construct: 5 μL of a 10 μM RORγt LBD solution (Apo or in complex with 10-excess compound)
T3 sequence (P51449 269-508 limits assumed): T1 sequence (P51449 269-508 limits assumed)
Text: While the mechanism of action of RORγt agonists on regulation of the immune checkpoint receptor PD-1 is unclear, a correlation between RORγt and PD-1 expression has been observed in PD-1 knockout mice Z Regardless, to gain insights into the structural mechanism for agonist activity we examined the impact of putative agonist ligands on the conformational dynamics of RORγt. To achieve this, we utilized differential hydrogen/deuterium exchange (HDX) mass spectrometry.
HDX-MS. Solution-phase amide HDX was performed with a fully automated system as described previously with minor modifications^30,31. For differential HDX experiments, 5 μL of a 10 μM RORγt LBD solution (Apo or in complex with 10-excess compound) was diluted to 25 μL with D20-containing HDX buffer, and incubated at 4° C. for; 10 s, 30s, 60s, 900s, and 3,600s, Following on-exchange, unwanted forward or back exchange is minimized and the protein is denatured by dilution to 50 μL with 0.1% TFA in 3M urea (held at 4° C., pH 2.5). Samples are then passed across an immobilized pepsin column (prepared in house) at 50 μL min−1 (0.1% TFA, 15° C.) and the resulting peptides are trapped onto a Ce trap cartridge (Thermo Fisher, Hypersil Gold). Peptides were then gradient eluted (4% CH3CN to 40% CH3CN, 0,3% formic acid over 5 minutes, 4° C.) across a 1 mm×50 mm Cia HPLC column (Hypersil Gold, Thermo Fisher) and electrosprayed directly into a high resolution orbitrap mass spectrometer (Exactive, Thermo Fisher). Percent deuterium exchange values for peptide isotopic envelopes at each time point were calculated and processed using HDX Workbench^32 and overlaid onto RORγt crystal structures using pyMOL (DeLano Scientific). HDX data is presented as an average of three individual replicates across […] time points (10s, 60s, 300s, 900s, and 3600s).

RORγt = molecular target: T4, RORγt (Homo sapiens, UniProt P51449); conditions: Circular Dichroism; cited from earlier work
T4 sequence (P51449 1-497 isoform P51449-2): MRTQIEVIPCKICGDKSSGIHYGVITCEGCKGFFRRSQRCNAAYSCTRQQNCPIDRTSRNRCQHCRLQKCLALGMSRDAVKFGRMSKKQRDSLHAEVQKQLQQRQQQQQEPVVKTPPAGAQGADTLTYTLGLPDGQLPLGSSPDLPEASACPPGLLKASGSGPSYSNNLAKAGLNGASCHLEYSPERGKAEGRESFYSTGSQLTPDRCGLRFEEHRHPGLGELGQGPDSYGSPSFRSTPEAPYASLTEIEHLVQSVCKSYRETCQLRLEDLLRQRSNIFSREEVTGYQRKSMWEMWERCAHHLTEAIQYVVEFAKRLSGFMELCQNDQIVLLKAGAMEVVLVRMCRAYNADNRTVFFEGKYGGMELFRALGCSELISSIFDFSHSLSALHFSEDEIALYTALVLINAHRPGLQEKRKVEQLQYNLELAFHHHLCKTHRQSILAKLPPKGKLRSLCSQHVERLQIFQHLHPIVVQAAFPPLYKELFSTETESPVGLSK

EL4 cells = assay: PD-1 surface expression in EL4 cells by flow cytometry; format: cell-based, murine; conditions: compound 48 hr
Method: (§1) Using flow cytometery surface PD-1 expression was analyzed to determine if the decrease in gene expression of PD-1 correlates to a decrease of the protein on the cell surface, Cell: surface PD-1 expression was measured in murine and human T cell lines as well as in ex vivo differentiated murine TH17 cells. […] Next we examined the impact of compound treatment on differentiated murine TH17 cells. […] To determine if there was an increase in the active T cell population during TH17 cell differentiation, the population of CD62L^−PD1^− double negative cells was measured using flow cytometry. […] To determine if the effects of SR0987 on PD-1 expression would be observed in a human cell line, Jurkat T cells were treated with the compound.
(§2) Gene expression and Cell sorting. Jurkat T cells were pre-incubated with compounds for 48 hr and activated with phorbol 12-myristate 13-acetate (PMA, 50 ng/mL; Sigma) and ionomycin (1 μg/mL; Sigma) for 5 hr. For qPCR, mRNA was isolated with an RNeasy midi kit using DNase I (Qiagen), and cDNA was synthesized with high capacity cDNA Reverse Transcription kit (Applied Biosystems). IL17A, PD-1, and granzyme B gene expression were normalized to the expression of GAPDH. The sequence of primers used in this study are found in Table 2. For cell sorting, activated Jurkat T cells were stained with APC conjugated anti-human PD-1 antibody (eBioscience). […]

Jurkat T cells = assay: PD-1 surface expression in Jurkat T cells; format: cell-based, human
Method: as §1, §2

EL4 T lymphocytes = assay: qPCR gene expression in PMA/ionomycin stimulated EL4 cells; format: cell-based, murine; conditions: PMA/ionomycin 5 hr
Method: Here we used murine EL4 T lymphocytes or human Jurkat T cells as model systems to analyze gene expression upon T cell activation. Following treatment of cells with Phorbol 12-myristate 13-acetate (PMA) and ionomycin, the expression of granzyme B (cytotoxicity marker), PD-1 (immune checkpoint) and the RORγt target gene IL17 were analyzed by qPCR.
Gene expression and Cell sorting. Jurkat T cells were pre-incubated with compounds for 48 hr and activated with phorbol 12-myristate 13-acetate (PMA, 50 ng/mL; Sigma) and ionomycin (1 μg/mL; Sigma) for 5 hr. For qPCR, mRNA was isolated with an RNeasy midi kit using DNase I (Qiagen), and cDNA was synthesized with high capacity cDNA Reverse Transcription kit (Applied Biosystems). IL17A, PD-1, and granzyme B gene expression were normalized to the expression of GAPDH. The sequence of primers used in this study are found in Table 2. For cell sorting, activated Jurkat T cells were stained with APC conjugated anti-human PD-1 antibody (eBioscience). Cell sorting was performed using LSRII (BD Bioscience).

[5] = tested on: differentiated TH17 cells; assay: TH17 cell differentiation, flow cytometry; format: cell-based, murine
Method: as §1
TH17 cell differentiation. For naïve T cell differentiation, CD4^+T cells were enriched by negative selection using a magnetic-activated cell sorter kit (Millipore). Enriched CD4+ T cells activated with 5 μg/mL of plate-abound anti CD3 antibody and 1 μg/mL of anti-CD28 antibody in the presence of 20 μg/mL of anti-IFNγ, 20 μg/mL of anti-IL-4, 1 ng/mL of TGFβ, AND 10 ng/mL of IL-6. Four-five days post differentiation, all cells were stimulated for 5 hr with 5 ng/mL of phorbol-12-myristate-13-acetate (Sigma) and 500 ng/mL of ionomycin (Sigma) contained with brefeldin A solution (eBioscience).

## O=C(Nc1ccc(C(O)(C(F)(F)F)C(F)(F)F)cc1)c1ccc(C(F)(F)F)cc1 [SR1078]
[1]
  IC50: ~15 µM
Gal4-RORγ
  fold induction at 30 µM: ≥ 2
[2]
  interaction of RORγt with SRC1-3 NR box peptide: concentration dependent increase in interaction
[3]
  expression of ROR target genes FGF21 and G6Pase: induced the expression of the ROR target genes FGF21 and G6Pase
[4]; RORγt exposed to ursolic acid, then compound
  protection to solvent exchange in H12: induced protection to solvent exchange in H12
[4]; UA pretreated, 268-275, charge 2, H1
  Differential HDX kinetics, peptide TEIEHLVQ: −2(3)*
[4]; UA pretreated, 268-278, charge 2, H1
  Differential HDX kinetics, peptide TEIEHLVQSVC: 0(3)*
[4]; UA pretreated, 268-280, charge 3, H1
  Differential HDX kinetics, peptide TEIEHLVQSVCKS: 1(4)*
[4]; UA pretreated, 268-286, charge 3, H1
  Differential HDX kinetics, peptide TEIEHLVQSVCKSYRETCQ: 0(3)*
[4]; UA pretreated, 268-286, charge 4, H1
  Differential HDX kinetics, peptide TEIEHLVQSVCKSYRETCQ: 1(3)*
[4]; UA pretreated, 288-292, charge 1, H2
  Differential HDX kinetics, peptide RLEDL: −2(4)*
[4]; UA pretreated, 288-293, charge 1, H2
  Differential HDX kinetics, peptide RLEDLL: −3(5)*
[4]; UA pretreated, 304-316, charge 2, H3/H4
  Differential HDX kinetics, peptide EVTGYQRKSMWEM: 1(4)*
[4]; UA pretreated, 317-329, charge 3, H4
  Differential HDX kinetics, peptide WERCAHHLTEAIQ: 0(1)*
[4]; UA pretreated, 317-330, charge 3, H4
  Differential HDX kinetics, peptide WERCAHHTEAIQY: 1(1)*
[4]; UA pretreated, 331-341, charge 2, H4/H5
  Differential HDX kinetics, peptide WEGAKRLSGF: 0(2)*
[4]; UA pretreated, 334-341, charge 2, H4/H5
  Differential HDX kinetics, peptide FAKRLSGF: 0(2)*
[4]; UA pretreated, 345-352, charge 1, H5/H6
  Differential HDX kinetics, peptide CQNDQM: 0(1)*
[4]; UA pretreated, 368-377, charge 2, B1
  Differential HDX kinetics, peptide CRAYNADNRTVF: 2(1)*
[4]; UA pretreated, 369-377, charge 2, B1
  Differential HDX kinetics, peptide YNADNRTVF: 1(3)*
[4]; UA pretreated, 378-387, charge 2, B2/H7
  Differential HDX kinetics, peptide FEGKYGGMEL: 2(3)*
[4]; UA pretreated, 388-395, charge 2, H7/H8
  Differential HDX kinetics, peptide FRALGCSEL: −1(2)*
[4]; UA pretreated, 396-410, charge 2, H8
  Differential HDX kinetics, peptide LISSIFDFSHSLSAL: 2(2)*
[4]; UA pretreated, 397-407, charge 1, H8
  Differential HDX kinetics, peptide ISSIFD: 1(2)*
[4]; UA pretreated, 397-410, charge 2, H8
  Differential HDX kinetics, peptide ISSIFDFSHSLSAL: 2(2)*
[4]; UA pretreated, 400-410, charge 2, H8
  Differential HDX kinetics, peptide IFDFSHSLSAL: 3(2)*
[4]; UA pretreated, 402-410, charge 2, H8
  Differential HDX kinetics, peptide DFSHSKSAL: 2(2)*
[4]; UA pretreated, 403-410, charge 2, H8
  Differential HDX kinetics, peptide FSHSLSAL: 2(3)*
[4]; UA pretreated, 454-478, charge 3, H11
  Differential HDX kinetics, peptide AXLPPXGKLRSLCSQ: 0(4)*
[4]; UA pretreated, 479-495, charge 2, H11
  Differential HDX kinetics, peptide HVERLQIFQHLHPIWQ: −6(3)*
[4]; UA pretreated, 496-505, charge 2, H12
  Differential HDX kinetics, peptide AAFPPLYKEL: −7(2)*
[4]; UA pretreated, 496-506, charge 2, H12
  Differential HDX kinetics, peptide AAFPPLYKELF: −5(2)*
[4]; UA pretreated, charge 2, H9
  Differential HDX kinetics, peptide HFSEDEIAL: 0(1)*
[4]; UA pretreated, charge 2, H11
  Differential HDX kinetics, peptide QIFQHLHPIWQ: −10(3)*
[4]; UA pretreated, charge 3, H1
  Differential HDX kinetics, peptide TEIEHLVQSVCKSYRETCQL: 0(4)*
[4]; UA pretreated, charge 3, H6/B1
  Differential HDX kinetics, peptide VRMCRAYNADNRTVF: 1(1)*
RORγt
  interaction with RORγt via thermal shift assay: direct interaction

## O=C(Nc1ccc(C(O)(C(F)(F)F)C(F)(F)F)cc1)c1ccccc1Cl [SR0987, 2-chloro-N-(4-(1,1,1,3,3,3-hexafluoro-hydroxypropan-2-yl)phenyl)benzamide]
EL4 cells
  surface expression of PD-1: statistically significant reduction of the surface expression of PD-1
Jurkat T cells
  cell surface PD-1 expression: decreased cell surface PD-1 expression
EL4 T lymphocytes
  IL17 mRNA expression: further increase in expression of IL17
  PD-1 mRNA expression: decrease in expression of PD-1
  granzyme B mRNA expression: did not impact the expression of granzyme B
[5]; compared to DMSO treated cells
  CD62L−PD1−CD4+ cell population: statistically significant increase
[5]; murine TH17 cells
  IL17 production (intracellular staining of IL17A): trend towards increased IL17 production
  surface PD-1 expression: repress surface PD-1 expression
